According to ChEMBL document CHEMBL6115002, “Discovery of novel sitolactone derivative leading to PANoptosis and differentiation of acute myeloid leukemia cells” (Eur J Med Chem, 2025):
Activity calls are given as the source filed them. No cut-off for these calls is given here.

Columns and labels:
[1] = Antiproliferative activity against mouse WEHI-3 cells assessed as inhibition cell proliferation incubated for 72 hrs by MTT assay; assay type: functional, cell-based; details: WEHI-3, 72 h
Kasumi 1 [2] = assay: Antiproliferative activity against human Kasumi 1 cells assessed as inhibition cell proliferation incubated for 72 hrs by MTT assay; assay type: functional, cell-based; details: Kasumi 1, 72 h
MV4-11 = assay: Antiproliferative activity against human MV4-11 cells assessed as inhibition cell proliferation incubated for 72 hrs by MTT assay; assay type: functional, cell-based; details: MV4-11, 72 h
HCT-116 [3] = assay: Inhibition of tumor sphere formation in human HCT-116 cells at 1.25 uM incubated for 24 hrs; assay type: functional, cell-based
HCT-116 [4] = assay: Anti-cancer activity against human HCT-116 cells assessed as reduction in number of spheroids incubated for 24 hrs; assay type: functional, cell-based
HCT-116 [5] = assay: Anti-cancer activity against human HCT-116 cells assessed as reduction in size of spheroids incubated for 24 hrs; assay type: functional, cell-based
NCI-H460 [6] = assay: Inhibition of tumor sphere formation in human NCI-H460 cells incubated for 24 hrs; assay type: functional, cell-based
HL-60 = assay: Antiproliferative activity against human HL-60 cells assessed as inhibition of cell proliferation incubated for 72 hrs by CCK-8 assay; assay type: functional, cell-based; details: HL-60, 72 h
[7] = Antiproliferative activity against human SKNO-1 cells assessed as inhibition of cell proliferation incubated for 72 hrs by CCK-8 assay; assay type: functional, cell-based; details: SKNO-1, 72 h
MOLM-13 = assay: Antiproliferative activity against human MOLM-13 cells assessed as inhibition of cell proliferation incubated for 72 hrs by CCK-8 assay; assay type: functional, cell-based; details: MOLM-13, 72 h
Z-138 = assay: Antiproliferative activity against human Z138 cells assessed as inhibition of cell proliferation incubated for 72 hrs by CCK-8 assay; assay type: functional, cell-based; details: Z-138, 72 h
Jurkat = assay: Antiproliferative activity against human Jurkat cells assessed as inhibition of cell proliferation incubated for 72 hrs by CCK-8 assay; assay type: functional, cell-based
NCI-H358 = assay: Antiproliferative activity against human NCI-H358 cells assessed as inhibition of cell proliferation incubated for 72 hrs by CCK-8 assay; assay type: functional, cell-based; details: NCI-H358, 72 h
NCI-H460 [8] = assay: Antiproliferative activity against human NCI-H460 cells assessed as inhibition of cell proliferation incubated for 72 hrs by CCK-8 assay; assay type: functional, cell-based; details: NCI-H460, 72 h
NCI-H23 = assay: Antiproliferative activity against human NCI-H23 cells assessed as inhibition of cell proliferation incubated for 72 hrs by CCK-8 assay; assay type: functional, cell-based; details: NCI-H23, 72 h
RKO = assay: Antiproliferative activity against human RKO cells assessed as inhibition of cell proliferation incubated for 72 hrs by CCK-8 assay; assay type: functional, cell-based
BXPC-3 = assay: Antiproliferative activity against human BXPC-3 cells assessed as inhibition of cell proliferation incubated for 72 hrs by CCK-8 assay; assay type: functional, cell-based; details: BXPC-3, 72 h
SW1990 = assay: Antiproliferative activity against human SW1990 cells assessed as inhibition of cell proliferation incubated for 72 hrs by CCK-8 assay; assay type: functional, cell-based; details: SW1990, 72 h
MIA PaCa-2 = assay: Antiproliferative activity against human MIA PaCa-2 cells assessed as inhibition of cell proliferation incubated for 72 hrs by CCK-8 assay; assay type: functional, cell-based; details: MIA PaCa-2, 72 h
Kasumi 1 [9] = assay: Inhibition of colony formation in human Kasumi 1 cells incubated for 15 days by crystal violet staining based analysis; assay type: functional, cell-based; details: dose 0.5-1 µM, time 15.0 day
[10] = Induction of cell cycle arrest in mouse WEHI-3 cells assessed as increase in accumulation of cells at G2 phase at 0.5 uM incubated for 24 hrs by propidium iodide staining based flow cytometric analysis (reference value: 1.85%); assay type: functional
[11] = Induction of cell cycle arrest in mouse WEHI-3 cells assessed as increase in accumulation of cells at G2 phase at 1 uM incubated for 24 hrs by propidium iodide staining based flow cytometric analysis (reference value: 1.85%); assay type: functional
[12] = Induction of cell cycle arrest in mouse WEHI-3 cells assessed as increase in accumulation of cells at S phase at 1 uM incubated for 24 hrs by propidium iodide staining based flow cytometric analysis (reference value: 51.22%); assay type: functional
Kasumi 1 [13] = assay: Induction of cell cycle arrest in human Kasumi 1 cells assessed as increase in accumulation of cells at G1 phase at 0.25 uM incubated for 24 hrs by propidium iodide staining based flow cytometric analysis (reference value: 50.41%); assay type: functional
Kasumi 1 [14] = assay: Induction of cell cycle arrest in human Kasumi 1 cells assessed as increase in accumulation of cells at G1 phase at 1 uM incubated for 24 hrs by propidium iodide staining based flow cytometric analysis (reference value: 50.41%); assay type: functional
Kasumi 1 [15] = assay: Induction of cell cycle arrest in human Kasumi 1 cells assessed as increase in accumulation of cells at G2 phase at 0.25 uM incubated for 24 hrs by propidium iodide staining based flow cytometric analysis (reference value: 9.82%); assay type: functional
Kasumi 1 [16] = assay: Induction of cell cycle arrest in human Kasumi 1 cells assessed as increase in accumulation of cells at S phase at 1 uM incubated for 24 hrs by propidium iodide staining based flow cytometric analysis (reference value: 39.77%); assay type: functional
WEHI-3 [17] = assay: Induction of cell cycle arrest in mouse WEHI-3 cells assessed as increase in P53 level at 0.15 to 1.2 uM incubated for 24 hrs by Western blotting analysis; assay type: functional, cell-based; details: dose 0.15-1.2 µM
Kasumi 1 [18] = assay: Induction of cell cycle arrest in human Kasumi 1 cells assessed as increase in P53 level at 0.15 to 1.2 uM incubated for 24 hrs by Western blotting analysis; assay type: functional, cell-based; details: dose 0.15-1.2 µM
Kasumi 1 [19] = assay: Induction of cell differentiation in human Kasumi 1 cells assessed as lobulated nuclei at 1 uM incubated for 24 hrs by giemsa-Wrights staining based analysis; assay type: functional
Kasumi 1 [20] = assay: Induction of cell differentiation in human Kasumi 1 cells assessed as increase in CD11B expression by Western blotting analysis; assay type: functional, cell-based; details: dose 0.25-1 µM
WEHI-3 [21] = assay: PANoptosis in mouse WEHI-3 cells assessed as cell death at 1.2 uM incubated for 72 hrs by optical microscopic analysis; assay type: functional, cell-based
WEHI-3 [22] = assay: Induction of apoptosis in mouse WEHI-3 cells assessed as increase in cleaved PARP-1 level incubated for 72 hrs by Western blotting analysis; assay type: functional, cell-based; details: dose 0.625-5 µM
Kasumi 1 [23] = assay: Induction of apoptosis in human Kasumi 1 cells assessed as increase in cleaved PARP-1 level incubated for 72 hrs by Western blotting analysis; assay type: functional, cell-based; details: dose 0.625-5 µM
Kasumi 1 [24] = assay: Induction of […] in human Kasumi 1 cells assessed as increase in p-MLKL level at 0.625 to 5 uM incubated for 72 hrs by Western blotting analysis; assay type: functional, cell-based; details: dose 0.625-5 µM
Kasumi 1 [25] = assay: Disruption of carbon metabolic pathway in human Kasumi 1 cells by KEGG enrichment analysis; assay type: functional, cell-based
[26] = Toxicity in Balb/c mouse implanted with mouse WEHI-3 cells assessed as animal survival at 100 to 200 mg/kg, po administered (4aR,6aS,7S,9aS,9bS)-2-(((S)-2-(hydroxymethyl)pyrrolidin-1-yl)methyl)-6a-methyl7 ((triisopropylsilyl)oxy)decahydrocyclopenta[f]chromen-3(2H)-one as prodrug once daily and measured after 15 days; assay type: organism-based; details: in vivo, 360 h, dose 100-200 mg/kg, time 15 day
WEHI-3 [27] = assay: Antitumor activity against mouse WEHI-3 cells implanted in Balb/c mouse assessed as reduction in leukocyte number at 100 to 200 mg/kg, po administered (4aR,6aS,7S,9aS,9bS)-2-(((S)-2-(hydroxymethyl)pyrrolidin-1-yl)methyl)-6a-methyl7 ((triisopropylsilyl)oxy)decahydrocyclopenta[f]chromen-3(2H)-one as prodrug once daily and measured after 15 days by H and E staining based analysis; assay type: functional, organism-based; details: dose 100-200 mg/kg, time 15.0 day

With `C=C1C[C@@H]2[C@@H](CC[C@]3(C)[C@@H](O[Si](C(C)C)(C(C)C)C(C)C)CC[C@@H]23)OC1=O` the IC50 [1] was 420 nM, the IC50 (Kasumi 1 [2]) was 570 nM and the IC50 (MV4-11) was 1750 nM. For the same compound, the inhibition (HCT-116 [3]) was “Active”, the Activity (HCT-116 [4]) was “Active” and the Activity (HCT-116 [5]) was “Active”. For the same compound, the inhibition (NCI-H460 [6]) was “Active”, the IC50 (HL-60) was 900 nM and the IC50 [7] was 1240 nM. The IC50 (MOLM-13) was 1530 nM, the IC50 (Z-138) was 1880 nM and the IC50 (Jurkat) was 2600 nM. It also gave an IC50 (NCI-H358) of 1780 nM, an IC50 (NCI-H460 [8]) of 2820 nM and an IC50 (NCI-H23) of 4000 nM. For the same compound, the IC50 (RKO) was 2070 nM, the IC50 (BXPC-3) was greater than 10000 nM and the IC50 (SW1990) was greater than 10000 nM. For the same compound, the IC50 (MIA PaCa-2) was 1710 nM, the inhibition (Kasumi 1 [9]) was “Dose-dependent-effect” and the Activity [10] was 3.33%. It also gave an Activity [11] of 3.39%, an Activity [12] of 32.07% and an Activity (Kasumi 1 [13]) of 52.67%. For the same compound, the Activity (Kasumi 1 [14]) was 58.52%, the Activity (Kasumi 1 [15]) was 10.77% and the Activity (Kasumi 1 [16]) was 22.53%. For the same compound, the Activity (WEHI-3 [17]) was “Active”, the Activity (Kasumi 1 [18]) was “Active” and the Activity (Kasumi 1 [19]) was “Active”. For the same compound, the Activity (Kasumi 1 [20]) was “Dose-dependent-effect”, the Activity (WEHI-3 [21]) was “Active” and the Activity (WEHI-3 [22]) was “Dose-dependent-effect”. For the same compound, the Activity (Kasumi 1 [23]) was “Dose-dependent-effect”, the Activity (Kasumi 1 [24]) was “Active” and the Activity (Kasumi 1 [25]) was “Active”. The Activity [26] was “Non-toxic” and the Activity (WEHI-3 [27]) was “Active”.
